Assays:
[1] = tested on: human Factor 11 mRNA; experiment: Dose-dependent inhibition of human Factor 11 in cyano primary hepatocytes, electroporation (Example 6); format: cell-based; settings: ~16 hours
Description: Cells were plated at a density of 35,000 cells per well and transfected via electroporation with 0.74 nM, 2.2 nM, 6.7 nM, 20 nM, 60 nM, and 180 nM concentrations of antisense oligonucleotide, as specified in Table 13. After a treatment period of approximately 16 hours, RNA was isolated from the cells and human Factor 11 mRNA levels were measured by quantitative real-time PCR. Human Factor 11 primer probe set RTS 2966 was used to measure mRNA levels. Factor 11 mRNA levels were adjusted according to total RNA content, as measured by RIBOGREEN. Results are presented as percent inhibition of human Factor 11, relative to untreated control cells.

[2] = tested on: human Factor 11 mRNA; experiment: Dose-dependent inhibition of human Factor 11 in HepB3 cells, lipofectin (Example 7); format: cell-based; settings: for percent inhibition of Factor 11 mRNA relative to untreated control cells: ~16 hours
Description: Cells were plated at a density of 4,000 cells per well and transfected using lipofectin reagent with 2.3 nM, 4.7 nM, 9.4 nM, 18.75 nM, 37.5 nM, and 75 nM concentrations of antisense oligonucleotide, as specified in Table 14. After a treatment period of approximately 16 hours, RNA was isolated from the cells and human Factor 11 mRNA levels were measured by quantitative real-time PCR. Human Factor 11 primer probe set RTS 2966 was used to measure mRNA levels. Factor 11 mRNA levels were adjusted according to total RNA content, as measured by RIBOGREEN. Results are presented as percent inhibition of Factor 11, relative to untreated control cells.

[3] = tested on: human Factor 11 mRNA; experiment: Dose-dependent inhibition of human Factor 11 in HepG2 cells, lipofectin 2.34-75 nM (Example 5); format: cell-based; settings: for percent inhibition of human Factor 11 mRNA relative to untreated control cells: ~16 hours
Description: Cells were plated at a density of 10,000 cells per well and transfected using lipofectin reagent with 2.34 nM, 4.69 nM, 9.375 nM, 18.75 nM, 37.5 nM, and 75 nM concentrations of antisense oligonucleotide, as specified in Table 11. After a treatment period of approximately 16 hours, RNA was isolated from the cells and human Factor 11 mRNA levels were measured by quantitative real-time PCR. Human Factor 11 primer probe set RTS 2966 was used to measure mRNA levels. Factor 11 mRNA levels were adjusted according to total RNA content, as measured by RIBOGREEN. Results are presented as percent inhibition of human Factor 11, relative to untreated control cells.

[4] = tested on: Factor 11 protein; experiment: Factor 11 protein in monkey plasma by sandwich ELISA (Example 46); format: in vivo, cynomolgus monkeys; settings: 25 mg/kg subcutaneously
Summary of the method: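 Monkeys (2 male, 2 female per group) dosed s.c. with antisense oligonucleotide at 25 mg/kg, three times weekly in week 1 then twice weekly through week 8; PBS controls. Plasma Factor 11 measured by sandwich ELISA (1:50 dilution, OPD, 490 nm); expressed as % reduction versus PBS.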

[5] = Tolerability in Sprague-Dawley rats: body weight and organ weight (Example 35); format: in vivo; settings: 50 mg/kg s.c. twice per week for 6 weeks; for Percent change: Body weight: percent change over the weights at the start of the study; for Percent change in organ weight: Kidney / Percent change in organ weight: Liver / Percent change in organ weight: Spleen: vs saline control, normalized to body weight
Excerpt: Urine samples were taken before the start of treatment.
The body weights are presented in Table 71 and are expressed as a percent change over the weights taken at the start of the study.

416850 (antisense TGCACAGTTTCTGGCAGGCC; 5-10-5 gapmer, further chemistry not given here) [compound 416850]
percent inhibition of human Factor 11 mRNA relative to untreated control cells ([1]; 0.74 nM): 2%
percent inhibition of human Factor 11 mRNA relative to untreated control cells ([1]; 2.2 nM): 20%
percent inhibition of human Factor 11 mRNA relative to untreated control cells ([1]; 6.7 nM): 24%
percent inhibition of human Factor 11 mRNA relative to untreated control cells ([1]; 20 nM): 65%
percent inhibition of human Factor 11 mRNA relative to untreated control cells ([1]; 60 nM): 69%
percent inhibition of human Factor 11 mRNA relative to untreated control cells ([1]; 180 nM): 67%
IC50 [2]: 13 nM
percent inhibition of Factor 11 mRNA relative to untreated control cells ([2]; 2.3 nM): 22%
percent inhibition of Factor 11 mRNA relative to untreated control cells ([2]; 4.7 nM): 32%
percent inhibition of Factor 11 mRNA relative to untreated control cells ([2]; 9.4 nM): 43%
percent inhibition of Factor 11 mRNA relative to untreated control cells ([2]; 18.75 nM): 56%
percent inhibition of Factor 11 mRNA relative to untreated control cells ([2]; 37.5 nM): 75%
percent inhibition of Factor 11 mRNA relative to untreated control cells ([2]; 75 nM): 60%
IC50 [3]: 13 nM
percent inhibition of human Factor 11 mRNA relative to untreated control cells ([3]; 2.34 nM): 24%
percent inhibition of human Factor 11 mRNA relative to untreated control cells ([3]; 4.69 nM): 31%
percent inhibition of human Factor 11 mRNA relative to untreated control cells ([3]; 9.375 nM): 49%
percent inhibition of human Factor 11 mRNA relative to untreated control cells ([3]; 18.75 nM): 55%
percent inhibition of human Factor 11 mRNA relative to untreated control cells ([3]; 37.5 nM): 70%
percent inhibition of human Factor 11 mRNA relative to untreated control cells ([3]; 75 nM): 77%
Inhibition of Factor 11 protein relative to the PBS control (percentage reduction) ([4]; Day 10, plasma): 20%
Inhibition of Factor 11 protein relative to the PBS control (percentage reduction) ([4]; Day 17, plasma): 31%
Inhibition of Factor 11 protein relative to the PBS control (percentage reduction) ([4]; Day 24, plasma): 38%
Inhibition of Factor 11 protein relative to the PBS control (percentage reduction) ([4]; Day 31, plasma): 52%
Inhibition of Factor 11 protein relative to the PBS control (percentage reduction) ([4]; Day 38, plasma): 51%
Inhibition of Factor 11 protein relative to the PBS control (percentage reduction) ([4]; Day 45, plasma): 53%
Inhibition of Factor 11 protein relative to the PBS control (percentage reduction) ([4]; Day 52, plasma): 53%
Inhibition of Factor 11 protein relative to the PBS control (percentage reduction) ([4]; Day 55, plasma): 58%
Inhibition of Factor 11 protein relative to the PBS control (percentage reduction) ([4]; Day −5, plasma): 0%
Inhibition of Factor 11 protein relative to the PBS control (percentage reduction) ([4]; Day −14, plasma): 0%
Percent change: Body weight [5]: −33%
Percent change in organ weight: Kidney [5]: +47%
Percent change in organ weight: Liver [5]: +23%
Percent change in organ weight: Spleen [5]: +354%

416858 (antisense ACGGCATTGGTGCACAGTTT; 5-10-5 gapmer, further chemistry not given here) [compound 416858]
percent inhibition of human Factor 11 mRNA relative to untreated control cells ([1]; 0.74 nM): 2%
percent inhibition of human Factor 11 mRNA relative to untreated control cells ([1]; 2.2 nM): 13%
percent inhibition of human Factor 11 mRNA relative to untreated control cells ([1]; 6.7 nM): 22%
percent inhibition of human Factor 11 mRNA relative to untreated control cells ([1]; 20 nM): 44%
percent inhibition of human Factor 11 mRNA relative to untreated control cells ([1]; 60 nM): 63%
percent inhibition of human Factor 11 mRNA relative to untreated control cells ([1]; 180 nM): 68%
IC50 [2]: 12 nM
percent inhibition of Factor 11 mRNA relative to untreated control cells ([2]; 2.3 nM): 17%
percent inhibition of Factor 11 mRNA relative to untreated control cells ([2]; 4.7 nM): 34%
percent inhibition of Factor 11 mRNA relative to untreated control cells ([2]; 9.4 nM): 43%
percent inhibition of Factor 11 mRNA relative to untreated control cells ([2]; 18.75 nM): 57%
percent inhibition of Factor 11 mRNA relative to untreated control cells ([2]; 37.5 nM): 74%
percent inhibition of Factor 11 mRNA relative to untreated control cells ([2]; 75 nM): 62%
IC50 [3]: 11 nM
percent inhibition of human Factor 11 mRNA relative to untreated control cells ([3]; 2.34 nM): 11%
percent inhibition of human Factor 11 mRNA relative to untreated control cells ([3]; 4.69 nM): 35%
percent inhibition of human Factor 11 mRNA relative to untreated control cells ([3]; 9.375 nM): 46%
percent inhibition of human Factor 11 mRNA relative to untreated control cells ([3]; 18.75 nM): 61%
percent inhibition of human Factor 11 mRNA relative to untreated control cells ([3]; 37.5 nM): 75%
percent inhibition of human Factor 11 mRNA relative to untreated control cells ([3]; 75 nM): 77%
Inhibition of Factor 11 protein relative to the PBS control (percentage reduction) ([4]; Day 10, plasma): 36%
Inhibition of Factor 11 protein relative to the PBS control (percentage reduction) ([4]; Day 17, plasma): 49%
Inhibition of Factor 11 protein relative to the PBS control (percentage reduction) ([4]; Day 24, plasma): 62%
Inhibition of Factor 11 protein relative to the PBS control (percentage reduction) ([4]; Day 31, plasma): 68%
Inhibition of Factor 11 protein relative to the PBS control (percentage reduction) ([4]; Day 38, plasma): 74%
Inhibition of Factor 11 protein relative to the PBS control (percentage reduction) ([4]; Day 45, plasma): 79%
Inhibition of Factor 11 protein relative to the PBS control (percentage reduction) ([4]; Day 52, plasma): 81%
Inhibition of Factor 11 protein relative to the PBS control (percentage reduction) ([4]; Day 55, plasma): 81%
Inhibition of Factor 11 protein relative to the PBS control (percentage reduction) ([4]; Day −5, plasma): 0%
Inhibition of Factor 11 protein relative to the PBS control (percentage reduction) ([4]; Day −14, plasma): 4%
Percent change: Body weight [5]: −21%
Percent change in organ weight: Kidney [5]: +5%
Percent change in organ weight: Liver [5]: +8%
Percent change in organ weight: Spleen [5]: +187%

417003 (antisense TGGTGCACAGTTTCTGGCAG; 2-13-5 gapmer chemistry, further chemistry not given here) [compound 417003]
percent inhibition of human Factor 11 mRNA relative to untreated control cells ([1]; 0.74 nM): 12%
percent inhibition of human Factor 11 mRNA relative to untreated control cells ([1]; 2.2 nM): 18%
percent inhibition of human Factor 11 mRNA relative to untreated control cells ([1]; 6.7 nM): 19%
percent inhibition of human Factor 11 mRNA relative to untreated control cells ([1]; 20 nM): 39%
percent inhibition of human Factor 11 mRNA relative to untreated control cells ([1]; 60 nM): 58%
percent inhibition of human Factor 11 mRNA relative to untreated control cells ([1]; 180 nM): 74%
IC50 [2]: 17 nM
percent inhibition of Factor 11 mRNA relative to untreated control cells ([2]; 2.3 nM): 11%
percent inhibition of Factor 11 mRNA relative to untreated control cells ([2]; 4.7 nM): 28%
percent inhibition of Factor 11 mRNA relative to untreated control cells ([2]; 9.4 nM): 40%
percent inhibition of Factor 11 mRNA relative to untreated control cells ([2]; 18.75 nM): 40%
percent inhibition of Factor 11 mRNA relative to untreated control cells ([2]; 37.5 nM): 63%
percent inhibition of Factor 11 mRNA relative to untreated control cells ([2]; 75 nM): 58%
IC50 [3]: 11 nM
percent inhibition of human Factor 11 mRNA relative to untreated control cells ([3]; 2.34 nM): 6%
percent inhibition of human Factor 11 mRNA relative to untreated control cells ([3]; 4.69 nM): 29%
percent inhibition of human Factor 11 mRNA relative to untreated control cells ([3]; 9.375 nM): 48%
percent inhibition of human Factor 11 mRNA relative to untreated control cells ([3]; 18.75 nM): 64%
percent inhibition of human Factor 11 mRNA relative to untreated control cells ([3]; 37.5 nM): 73%
percent inhibition of human Factor 11 mRNA relative to untreated control cells ([3]; 75 nM): 82%
Percent change: Body weight [5]: −40%
Percent change in organ weight: Kidney [5]: +25%
Percent change in organ weight: Liver [5]: +51%
Percent change in organ weight: Spleen [5]: +522%

From patent publication US20230263822A1, “MODULATION OF FACTOR 11 EXPRESSION” (Ionis Pharmaceuticals, Inc., priority 2008, published 2023)
